Reference: PubChem BioAssay AID1918930 (Molecular Pharmacology Branch, DTP, NCI, 2023)

Tested on: 233499-124-R-J3-PDC complex spheroid viability, % test/control
Experiment: Anticancer human tumor 233499-124-R-J3-PDC patient-derived colon adenocarcinoma cell line growth inhibition
Conditions: for IC50: curve of first compound; for viability, T/C: stronger effect = lower value
Outline: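 Drug combinations with the LSD1 inhibitor iadademstat tested on tumor cells co-cultured as spheroids with endothelial cells and mesenchymal stem cells. Concentrations descended in half-log increments from clinical Cmax or 10 microM.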

[1] = second compound 0.1 µM, first compound 0.000316 µM
[2] = second compound 0.1 µM, first compound 0.001 µM
[3] = second compound 0.1 µM, first compound 0.00316 µM
[4] = second compound 0.1 µM, first compound 0.01 µM
[5] = second compound 0.1 µM, first compound 0.0316 µM
[6] = second compound 0.1 µM, first compound 0.1 µM
[7] = second compound 0.316 µM, first compound 0.000316 µM
[8] = second compound 0.316 µM, first compound 0.001 µM
[9] = second compound 0.316 µM, first compound 0.00316 µM
[10] = second compound 0.316 µM, first compound 0.01 µM
[11] = second compound 0.316 µM, first compound 0.0316 µM
[12] = second compound 0.316 µM, first compound 0.1 µM
[13] = second compound 1 µM, first compound 0.000316 µM
[14] = second compound 1 µM, first compound 0.001 µM
[15] = second compound 1 µM, first compound 0.00316 µM
[16] = second compound 1 µM, first compound 0.01 µM
[17] = second compound 1 µM, first compound 0.0316 µM
[18] = second compound 1 µM, first compound 0.1 µM
[19] = second compound 3.16 µM, first compound 0.000316 µM
[20] = second compound 3.16 µM, first compound 0.001 µM
[21] = second compound 3.16 µM, first compound 0.00316 µM
[22] = second compound 3.16 µM, first compound 0.01 µM
[23] = second compound 3.16 µM, first compound 0.0316 µM
[24] = second compound 3.16 µM, first compound 0.1 µM
[25] = second compound 10 µM, first compound 0.000316 µM
[26] = second compound 10 µM, first compound 0.001 µM
[27] = second compound 10 µM, first compound 0.00316 µM
[28] = second compound 10 µM, first compound 0.01 µM
[29] = second compound 10 µM, first compound 0.0316 µM
[30] = second compound 10 µM, first compound 0.1 µM
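Also: spheroids exposed to agents for one week before readout.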

Row | SMILES | IC50 (second compound 0.1 µM) | IC50 (second compound 0.316 µM) | IC50 (second compound 1 µM) | IC50 (second compound 3.16 µM) | IC50 (second compound 10 µM) | viability, T/C [1] | viability, T/C [2] | viability, T/C [3] | viability, T/C [4] | viability, T/C [5] | viability, T/C [6] | viability, T/C [7] | viability, T/C [8] | viability, T/C [9] | viability, T/C [10] | viability, T/C [11] | viability, T/C [12] | viability, T/C [13] | viability, T/C [14] | viability, T/C [15] | further results
1 | CC(C)CC(NC(=O)C(Cc1ccccc1)NC(=O)c1cnccn1)B(O)O (stereo not given) + NC1CCC(NC2CC2c2ccccc2)CC1 | 2.62 nM | 2.93 nM | 2.18 nM | 1.95 nM | 2.83 nM | 105% | 114% | 38.4% | 0.08% | 1.9% | 2.95% | 110% | 107% | 46% | 0.06% | 0.03% | 1.83% | 109% | 100% | 25.9% | viability, T/C [16]: 0.26%; viability, T/C [17]: 3.69%; viability, T/C [18]: 3.26%; viability, T/C [19]: 90.9%; viability, T/C [20]: 94.5%; viability, T/C [21]: 19.2%; viability, T/C [22]: 0.04%; viability, T/C [23]: 2.68%; viability, T/C [24]: 0.1%; viability, T/C [25]: 87.7%; viability, T/C [26]: 80.8%; viability, T/C [27]: 46.9%; viability, T/C [28]: 0.13%; viability, T/C [29]: 0.6%; viability, T/C [30]: 0.18%
2 | CC(C)CC(NC(=O)CNC(=O)c1cc(Cl)ccc1Cl)B1OC(=O)CC(CC(=O)O)(C(=O)O)O1 (stereo not given) + NC1CCC(NC2CC2c2ccccc2)CC1 | 5.11 nM | 5.49 nM | 4.87 nM | 4.14 nM | 3.33 nM | 104% | 90.2% | 81.8% | 4.56% | 6.96% | 5.21% | 109% | 96.2% | 88.8% | 7.64% | 8.46% | 0.08% | 88.7% | 78.1% | 75.8% | viability, T/C [16]: 7.01%; viability, T/C [17]: 4.17%; viability, T/C [18]: 2.6%; viability, T/C [19]: 77.2%; viability, T/C [20]: 70.2%; viability, T/C [21]: 63.4%; viability, T/C [22]: 6.41%; viability, T/C [23]: 0.1%; viability, T/C [24]: 3.85%; viability, T/C [25]: 81.8%; viability, T/C [26]: 73.7%; viability, T/C [27]: 52.8%; viability, T/C [28]: 6.15%; viability, T/C [29]: 0.14%; viability, T/C [30]: 0.16%
